Where a name gives a salt, the structure may show the parent alone. *1 amine or outer side, *2 acyl side, *3 side chain or, on linkers, in order; H or OH if unused. Where a SMILES comes first, the peptide text is derived from it. Bridges are numbered along the chain shown (N, C = ends). [ ]: non-standard residue; d: D form. The star is where a group is joined. X1 = NC1=N[C@@H](O)C[C@H]([C@H](N[*:1])C(=O)[*:2])N1; ΔAla(Z-3-ureido) = NC(=O)N/C=C(\N)C(=O)O; β3hOrn = NCCC[C@H](N)CC(=O)*; Dap = NC[C@H](N)C(=O)O
system: T1, 1N4R p-tau; assay: p-tau aggregation modulator screen of 1280-compound library (ThS fluorescence net change over 16 h); assay type: biochemical; set-up: key to PTAI>3SD: *: PTAI>3SD; settings: not given
T1 construct: made in house; host or cells: E. coli (PIMAX system)

Row | SMILES | ThS net change
1 | C[C@]12CC[C@@H](O)C[C@@H]1CC[C@@H]1[C@@H]2CC[C@]2(C)C(=O)CC[C@@H]12 [Androsterone] | 449
2 | O=C1c2c(O)ccc(O)c2C(=O)c2c(NCCNCCO)ccc(NCCNCCO)c21 [Mitoxantrone dihydrochloride] | 328
3 | NC[C@@H]1O[C@H](O[C@H]2[C@@H](O)[C@H](O[C@@H]3[C@@H](O)[C@H](N)C[C@H](N)[C@H]3O[C@H]3O[C@H](CO)[C@@H](O)[C@H](O)[C@H]3N)O[C@@H]2CO)[C@H](N)[C@@H](O)[C@@H]1O [Paromomycin sulfate] | 472
4 | Clc1ccc(CCC(Cn2ccnc2)Sc2c(Cl)cccc2Cl)cc1 (stereo not shown) [Butoconazole nitrate] | 237
5 | CN1[C@@H]2CC[C@H]1C[C@@H](OC(=O)C(CO)c1ccccc1)C2 (stereo partly shown) [Atropine sulfate monohydrate] | 397
6 | C=CC[C@]1(O)CC[C@H]2[C@@H]3CCC4=CC(=O)CCC4=C3C=C[C@@]21C [Altrenogest] | 432
7 | CCCCc1ccc2[nH]c(NC(=O)OC)nc2c1 [Parbendazole] | 465

same assay, conditions: 30 µM compound, 6 µM p-tau, 16 h

Row | SMILES | effect on p-tau aggregation in pilot screen
8 | CC/C(=C(\c1ccccc1)c1ccc(OCCN(C)C)cc1)c1ccccc1 [tamoxifen, reference compound] | none of them affected p-tau aggregation

same assay, conditions: 1280-compound library screen; ThS fluorescence net change over 16 h

Row | SMILES | ThS net change
9 | C[C@@H]1[C@H](O)[C@@H](C)/C=C/C=C/C=C/C=C/C=C/C=C/C=C/[C@H](O[C@@H]2O[C@H](C)[C@@H](O)[C@H](N)[C@@H]2O)C[C@@H]2O[C@](O)(C[C@@H](O)C[C@@H](O)[C@H](O)CC[C@@H](O)C[C@@H](O)CC(=O)O[C@H]1C)C[C@H](O)[C@H]2C(=O)O [Amphotericin B] | 396
10 | C1N2CN3CN1CN(C2)C3 [Methenamine] | 391
11 | N#Cc1cc(NC(=O)C(=O)O)c(Cl)c(NC(=O)C(=O)O)c1 [Lodoxamide] | 409
12 | O=C(NCCN1CCOCC1)c1ccc(Cl)cc1 [Moclobemide] | 393
13 | C[C@H](CCC(=O)O)[C@H]1CC[C@H]2[C@@H]3[C@H](O)C[C@@H]4C[C@H](O)CC[C@]4(C)[C@H]3CC[C@]12C [Chenodiol] | 394
14 | CC1CNc2c(cccc2S(=O)(=O)N[C@@H](CCCNC(=N)N)C(=O)N2CC[C@@H](C)C[C@@H]2C(=O)O)C1 (stereo partly shown) [Argatroban] | 388
15 | CN(C)/N=N/c1[nH]cnc1C(N)=O [Dacarbazine] | 392
16 | NCC(CC(=O)O)c1ccc(Cl)cc1 (racemic) [Baclofen (R,S)] | 407
17 | C[C@H]1[C@H](NC(=O)/C(=N\OC(C)(C)C(=O)O)c2csc(N)n2)C(=O)N1S(=O)(=O)O [Aztreonam] | 386
18 | C[N+]12CCC(CC1)C(OC(=O)C(O)(c1ccccc1)c1ccccc1)C2 (stereo not shown) [Clidinium bromide] | 389
19 | Cc1c(NC(C)C)c(=O)n(-c2ccccc2)n1C.Cl [Isopyrin hydrochloride] | 380
20 | CC(=O)O[C@]1(C(C)=O)CC[C@H]2[C@@H]3C=C(Cl)C4=CC(=O)CC[C@]4(C)[C@H]3CC[C@@]21C [Chlormadinone acetate] | 385

same assay, conditions: flag: p-tau aggregation inhibitor, ThS net change more than 3 SD from mean

Row | SMILES | PTAI>3SD
21 | COc1cc(-c2ccc(/N=N/c3ccc4c(S(=O)(=O)[O-])cc(S(=O)(=O)[O-])c(N)c4c3O)c(OC)c2)ccc1/N=N/c1ccc2c(S(=O)(=O)[O-])cc(S(=O)(=O)[O-])c(N)c2c1O.[Na+].[Na+].[Na+].[Na+] [Chicago sky blue 6B] | *
22 | CN1CCCC(n2nc(Cc3ccc(Cl)cc3)c3ccccc3c2=O)CC1 (stereo not shown) [Azelastine HCl] | *

same assay, conditions: library screen, ThS fluorescence net change over 16 h with p-tau

Row | SMILES | ThS net change
23 | CC(CCc1ccc(O)cc1)NCCc1ccc(O)c(O)c1 (stereo not shown) [Dobutamine hydrochloride] | 257
24 | CCCNCC(O)COc1ccccc1C(=O)CCc1ccccc1 (stereo not shown) [Propafenone hydrochloride] | 317
25 | C[C@H](N)[C@H](O)c1cccc(O)c1 [Metaraminol bitartrate] | 321
26 | COc1cc(-c2ccc(/N=N/c3ccc4c(S(=O)(=O)[O-])cc(S(=O)(=O)[O-])c(N)c4c3O)c(OC)c2)ccc1/N=N/c1ccc2c(S(=O)(=O)[O-])cc(S(=O)(=O)[O-])c(N)c2c1O.[Na+].[Na+].[Na+].[Na+] [Chicago sky blue 6B] | 11
27 | C=C1/C(=C\C=C2/CCC[C@]3(C)[C@@H]([C@H](C)CCCC(C)C)CC[C@@H]23)C[C@@H](O)C[C@@H]1O [Alfacalcidol] | 284
28 | CN1CCCC(n2nc(Cc3ccc(Cl)cc3)c3ccccc3c2=O)CC1 (stereo not shown) [Azelastine HCl] | 0

same assay, conditions: p-tau aggregation modulator screen of 1280-compound library; ThS fluorescence net change

Row | SMILES | ThS net change
29 | CC(C)(C)NC(=O)[C@H]1CC[C@H]2[C@@H]3CC[C@H]4NC(=O)C=C[C@]4(C)[C@H]3CC[C@]12C [Finasteride] | 346
30 | COCC(=O)Nc1c(I)c(C(=O)NCC(O)CO)c(I)c(C(=O)N(C)CC(O)CO)c1I (stereo not shown) [Iopromide] | 359
31 | c1ccc2[nH]c(-c3cscn3)nc2c1 [Tiabendazole] | 355
32 | O=c1oc2ccccc2c(O)c1Cc1c(O)c2ccccc2oc1=O [Dicumarol] | 363
33 | CCOC(=O)OC(C)OC(=O)[C@@H]1N2C(=O)[C@@H](NC(=O)[C@H](N)c3ccccc3)[C@H]2SC1(C)C (stereo partly shown) [Bacampicillin hydrochloride] | 371
34 | CC(=O)N(CC(O)CO)c1c(I)c(C(=O)NCC(O)CO)c(I)c(C(=O)NCC(O)CO)c1I (stereo not shown) [Iohexol] | 345
35 | CCN1CCN(C(=O)N[C@@H](C(=O)N[C@@H]2C(=O)N3C(C(=O)O)=C(CSc4nnnn4C)CS[C@H]23)c2ccc(O)cc2)C(=O)C1=O [Cefoperazone dihydrate] | 363
36 | COCCOC(=O)C1=C(C)NC(C)=C(C(=O)OC(C)C)C1c1cccc([N+](=O)[O-])c1 (stereo not shown) [Nimodipine] | 343
37 | Cc1c(O)c(=O)n(-c2ccccc2)n1C [Antipyrine, 4-hydroxy] | 371
38 | Nc1nc(N)c2nc(-c3ccccc3)c(N)nc2n1 [Triamterene] | 354

same assay, conditions: p-tau aggregation modulator screen of 1280-compound library; […]

Row | SMILES | ThS net change
39 | CC/C(=C(\c1ccccc1)c1ccc(OCCN(C)C)cc1)c1ccccc1 [Tamoxifen citrate] | 336
40 | CN(CCCCCCCCCCN(C)C(=O)Oc1cccc([N+](C)(C)C)c1)C(=O)Oc1cccc([N+](C)(C)C)c1 [Demecarium bromide] | 377
41 | CC(C)c1ccc2oc3nc(N)c(C(=O)O)cc3c(=O)c2c1 [Amlexanox] | 376
42 | CN(C)CCC(c1ccc(Cl)cc1)c1ccccn1 (stereo not shown) [Chlorpheniramine maleate] | 354
43 | C[C@]12CCC(=O)C=C1CC[C@@H]1[C@@H]2C(=O)C[C@]2(C)C(=O)CC[C@@H]12 [Adrenosterone] | 334
44 | Cc1cc2c(s1)Nc1ccccc1N=C2N1CCN(C)CC1 [Olanzapine] | 345
45 | Cc1cccc(C)c1N=C1NCCCS1 [Xylazine] | 366
46 | O=P1(NCCCl)OCCCN1CCCl (stereo not shown) [Ifosfamide] | 374

same assay, conditions: p-tau aggregation modulator screen of the compound library, ThS fluorescence net change

Row | SMILES | ThS net change
47 | NCc1ccc(S(N)(=O)=O)cc1 [Mafenide hydrochloride] | 415
48 | CC[C@H]1OC(=O)[C@H](C)[C@@H](O[C@H]2C[C@@](C)(OC)[C@@H](O)[C@H](C)O2)[C@H](C)[C@@H](O[C@@H]2O[C@H](C)C[C@H](N(C)C)[C@H]2O)[C@](C)(O)C[C@@H](C)CN(C)[C@H](C)[C@@H](O)[C@]1(C)O [Azithromycin] | 467
49 | COc1ccc(Cc2nccc3cc(OC)c(OC)cc23)cc1OC [Papaverine hydrochloride] | 427
50 | N#CC(c1ccc(Cl)cc1)c1c(Cl)cc(-n2ncc(=O)[nH]c2=O)cc1Cl (stereo not shown) [Diclazuril] | 507
51 | CN(C)CC/C=C1/c2ccccc2COc2ccc(CC(=O)O)cc21 [Olopatadine hydrochloride] | 439
52 | O=C1OCCN1/N=C/c1ccc([N+](=O)[O-])o1 [Furazolidone] | 415
53 | CCCCCCNC(=O)n1cc(F)c(=O)[nH]c1=O [Carmofur, 1-hexylcarbamoyl-5-fluorouracil] | 1524
54 | CCc1nn(CCCN2CCN(c3cccc(Cl)c3)CC2)c(=O)n1CCOc1ccccc1 [Nefazodone HCl] | 454
55 | CCC1NC(=O)c2cc(S(N)(=O)=O)c(Cl)cc2N1 (stereo not shown) [Quinethazone] | 427
56 | CC(=O)O[C@H]1C(=O)[C@@]2(C)[C@H]([C@H](OC(=O)c3ccccc3)[C@]3(O)C[C@H](OC(=O)[C@H](O)[C@@H](NC(=O)c4ccccc4)c4ccccc4)C(C)=C1C3(C)C)[C@]1(OC(C)=O)CO[C@@H]1C[C@@H]2O [Paclitaxel] | 437
57 | CCN1CCCC1CNC(=O)c1cc(S(=O)(=O)CC)c(N)cc1OC (stereo not shown) [Amisulpride] | 428
58 | CCOC(=O)[C@H](CCc1ccccc1)N[C@@H](C)C(=O)N1CCC[C@H]1C(=O)O [Enalapril maleate] | 2088
59 | Cl.Cl.Fc1ccc(C(OCCN2CCN(CCCc3ccccc3)CC2)c2ccc(F)cc2)cc1 [GBR 12909 dihydrochloride] | 515
60 | CC=CC1=C(C(=O)O)N2C(=O)[C@@H](NC(=O)[C@H](N)c3ccc(O)cc3)[C@H]2SC1 (mixture of isomers) [Cefprozil] | 440
61 | C[C@]12CC[C@H](O)C[C@H]1CC[C@@H]1[C@@H]2C[C@@H](O)[C@]2(C)[C@@H](C3=CC(=O)OC3)CC[C@]12O [Digoxigenin] | 440
62 | CC[C@H](c1ccc(O)cc1)[C@@H](CC)c1ccc(O)cc1 [Hexestrol] | 435
63 | CCOc1cc(CC(=O)N[C@@H](CC(C)C)c2ccccc2N2CCCCC2)ccc1C(=O)O [Repaglinide] | 481
64 | NCCC[C@H](N)CC(=O)N[C@H]1CNC(=O)[C@H]([C@H]2C[C@H](O)N=C(N)N2)NC(=O)/C(=C/NC(N)=O)NC(=O)[C@H](CO)NC(=O)[C@H](CO)NC1=O.O=S(=O)(O)O [Viomycin sulfate] (β3hOrn-[Dap]SS[ΔAla(Z-3-ureido)][X1]; lactam 1-C) | 453
65 | CC(C)n1c(/C=C/C(O)CC(O)CC(=O)O)c(-c2ccc(F)cc2)c2ccccc21 (stereo not shown) [Fluvastatin sodium salt] | 473
66 | CO/N=C(\C(=O)N[C@@H]1C(=O)N2C(C(=O)OC(C)OC(C)=O)=C(COC(N)=O)CS[C@H]12)c1ccco1 (stereo partly shown) [Cefuroxime axetil] | 445
67 | N[C@@H](Cc1ccc(O)c(O)c1)C(=O)O [Levodopa] | 444

Reference: paper PMC7539012, “Hyperphosphorylated tau aggregation and cytotoxicity modulators screen identified prescription drugs linked to Alzheimer's disease and cognitive functions” (Scientific Reports, 2020)
